Test results: US11090267B2, “Rapidly degrading embolic particles with therapeutic agent release” (priority 2014, dated 2021)

Experiment: incubation in water at 37° C., crystal form conversion (micrographs)
Type: physicochemical

| Structure (SMILES) | conversion to dihydrate crystals upon incubation in water (as-received powder dispersed in water at 37° C., FIGS. 5 and 6) | conversion to dihydrate crystals upon incubation in water (amorphous paclitaxel microparticles dispersed in PLGA matrix, water at 37C, FIG. 4) |
| --- | --- | --- |
| CC(=O)O[C@H]1C(=O)[C@@]2(C)[C@H]([C@H](OC(=O)c3ccccc3)[C@]3(O)C[C@H](OC(=O)[C@H](O)[C@@H](NC(=O)c4ccccc4)c4ccccc4)C(C)=C1C3(C)C)[C@]1(OC(C)=O)CO[C@@H]1C[C@@H]2O [crystalline anhydrous paclitaxel, paclitaxel] | coalesce within hours to large needle-like dihydrate crystals | – |
| CC(=O)O[C@H]1C(=O)[C@@]2(C)[C@H]([C@H](OC(=O)c3ccccc3)[C@]3(O)C[C@H](OC(=O)[C@H](O)[C@@H](NC(=O)c4ccccc4)c4ccccc4)C(C)=C1C3(C)C)[C@]1(OC(C)=O)CO[C@@H]1C[C@@H]2O [amorphous paclitaxel, paclitaxel] | – | coalesce within hours into large, needle-like dihydrate crystals |
